In the kinase profiling compilation of Christmann-Franck et al. (2016):

Assays:
Experiment in all cases: SelectScreen, TR FRET
Settings in all cases: compound 5.0 µM
MAP2K6 (human) = MAP2K6 (human) (UniProt P52564)
BTK (human) = BTK (human) (UniProt Q06187)
MYLK2 (human) = MYLK2 (human) (UniProt Q9H1R3)
IRAK4 (human) = IRAK4 (human) (UniProt Q9NWZ3)
RPS6KA5 KD1 KD2 (human) = RPS6KA5 KD1 KD2 (human) (UniProt O75582)
BMX (human) = BMX (human) (UniProt P51813)
SRPK2 (human) = SRPK2 (human) (UniProt P78362)
Sequence of SRPK2 (human) (P78362 whole entry, looked up): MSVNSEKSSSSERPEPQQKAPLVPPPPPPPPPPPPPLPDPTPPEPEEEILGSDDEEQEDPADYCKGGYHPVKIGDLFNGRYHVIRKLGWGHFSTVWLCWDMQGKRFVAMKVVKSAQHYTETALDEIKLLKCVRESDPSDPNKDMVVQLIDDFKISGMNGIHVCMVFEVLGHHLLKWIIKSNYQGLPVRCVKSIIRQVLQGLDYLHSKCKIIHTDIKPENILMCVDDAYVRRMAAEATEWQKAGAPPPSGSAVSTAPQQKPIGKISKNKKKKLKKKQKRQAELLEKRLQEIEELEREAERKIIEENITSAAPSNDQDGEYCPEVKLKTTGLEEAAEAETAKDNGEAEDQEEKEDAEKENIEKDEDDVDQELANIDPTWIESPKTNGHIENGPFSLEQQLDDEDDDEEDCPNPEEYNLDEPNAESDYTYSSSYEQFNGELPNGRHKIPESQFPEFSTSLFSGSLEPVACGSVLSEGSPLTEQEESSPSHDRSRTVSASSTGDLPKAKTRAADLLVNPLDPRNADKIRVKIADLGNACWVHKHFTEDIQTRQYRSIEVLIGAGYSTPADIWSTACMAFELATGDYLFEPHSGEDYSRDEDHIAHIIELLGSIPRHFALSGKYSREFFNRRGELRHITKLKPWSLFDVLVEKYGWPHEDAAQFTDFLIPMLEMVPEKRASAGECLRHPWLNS

INSR (human) = INSR (human) (UniProt P06213)
PRKCB2 (human) = PRKCB2 (human) (UniProt P05771)
ALK (human) = ALK (human) (UniProt Q9UM73)
TAOK2 (human) = TAOK2 (human) (UniProt Q9UL54)
Sequence of TAOK2 (human) (Q9UL54 whole entry, looked up): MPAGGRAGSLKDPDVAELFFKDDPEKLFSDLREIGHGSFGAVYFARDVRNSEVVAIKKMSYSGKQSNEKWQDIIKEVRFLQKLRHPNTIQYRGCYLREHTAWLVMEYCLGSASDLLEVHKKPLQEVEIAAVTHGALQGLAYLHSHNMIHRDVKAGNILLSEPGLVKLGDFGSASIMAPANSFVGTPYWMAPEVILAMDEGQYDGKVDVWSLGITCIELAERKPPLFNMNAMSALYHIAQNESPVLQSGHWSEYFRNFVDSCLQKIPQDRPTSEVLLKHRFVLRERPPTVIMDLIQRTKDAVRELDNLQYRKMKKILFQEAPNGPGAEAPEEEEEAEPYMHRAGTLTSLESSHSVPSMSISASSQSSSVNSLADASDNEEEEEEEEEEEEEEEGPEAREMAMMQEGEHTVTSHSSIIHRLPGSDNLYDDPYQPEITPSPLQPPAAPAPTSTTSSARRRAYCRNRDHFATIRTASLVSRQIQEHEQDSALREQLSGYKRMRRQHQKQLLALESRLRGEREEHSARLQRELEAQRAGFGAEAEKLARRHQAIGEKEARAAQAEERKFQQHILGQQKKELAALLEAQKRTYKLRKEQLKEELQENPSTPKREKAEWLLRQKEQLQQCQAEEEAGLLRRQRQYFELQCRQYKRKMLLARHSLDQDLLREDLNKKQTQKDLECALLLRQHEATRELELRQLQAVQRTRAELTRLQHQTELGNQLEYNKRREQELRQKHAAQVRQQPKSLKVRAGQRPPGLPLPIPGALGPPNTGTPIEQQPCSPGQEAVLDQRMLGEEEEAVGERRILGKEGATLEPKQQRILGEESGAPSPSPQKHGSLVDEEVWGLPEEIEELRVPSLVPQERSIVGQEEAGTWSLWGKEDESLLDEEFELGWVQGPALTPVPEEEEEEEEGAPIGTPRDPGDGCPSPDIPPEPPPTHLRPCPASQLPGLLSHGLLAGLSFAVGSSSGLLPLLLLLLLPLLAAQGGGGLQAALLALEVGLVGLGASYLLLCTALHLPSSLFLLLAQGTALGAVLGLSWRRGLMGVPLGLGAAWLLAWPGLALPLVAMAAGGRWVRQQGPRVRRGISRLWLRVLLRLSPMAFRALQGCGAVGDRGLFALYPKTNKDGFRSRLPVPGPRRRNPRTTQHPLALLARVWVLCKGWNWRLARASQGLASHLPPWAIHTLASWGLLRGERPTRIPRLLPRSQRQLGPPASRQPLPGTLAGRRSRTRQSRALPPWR

Sequence of MAP2K6 (human) (P52564 whole entry, looked up): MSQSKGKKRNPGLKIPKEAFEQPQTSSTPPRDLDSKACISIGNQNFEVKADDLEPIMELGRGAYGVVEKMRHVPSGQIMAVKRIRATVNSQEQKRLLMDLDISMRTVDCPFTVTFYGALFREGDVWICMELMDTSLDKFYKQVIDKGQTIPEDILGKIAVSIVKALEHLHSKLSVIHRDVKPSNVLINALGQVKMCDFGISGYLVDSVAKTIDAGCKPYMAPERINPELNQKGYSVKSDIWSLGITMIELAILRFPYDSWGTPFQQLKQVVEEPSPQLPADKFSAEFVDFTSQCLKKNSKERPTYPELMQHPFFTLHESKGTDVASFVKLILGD
Sequence of BMX (human) (P51813 whole entry, looked up): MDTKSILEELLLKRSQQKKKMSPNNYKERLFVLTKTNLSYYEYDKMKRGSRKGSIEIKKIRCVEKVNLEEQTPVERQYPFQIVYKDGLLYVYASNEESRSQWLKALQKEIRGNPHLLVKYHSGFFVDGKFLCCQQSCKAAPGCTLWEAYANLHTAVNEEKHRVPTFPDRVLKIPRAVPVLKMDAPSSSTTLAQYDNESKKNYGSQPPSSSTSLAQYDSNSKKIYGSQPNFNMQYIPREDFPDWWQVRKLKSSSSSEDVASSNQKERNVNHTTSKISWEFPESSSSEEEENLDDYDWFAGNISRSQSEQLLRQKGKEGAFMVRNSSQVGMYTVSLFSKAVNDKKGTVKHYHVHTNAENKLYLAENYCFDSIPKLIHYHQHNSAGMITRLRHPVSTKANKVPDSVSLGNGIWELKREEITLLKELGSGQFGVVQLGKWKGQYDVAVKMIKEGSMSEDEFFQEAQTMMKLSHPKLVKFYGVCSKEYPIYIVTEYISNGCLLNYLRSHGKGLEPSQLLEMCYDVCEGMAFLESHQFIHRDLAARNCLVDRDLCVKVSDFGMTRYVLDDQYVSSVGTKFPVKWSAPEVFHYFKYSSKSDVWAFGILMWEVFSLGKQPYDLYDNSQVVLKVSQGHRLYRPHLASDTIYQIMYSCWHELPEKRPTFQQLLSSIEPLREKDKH
Sequence of RPS6KA5 KD1 KD2 (human) (O75582 whole entry, looked up): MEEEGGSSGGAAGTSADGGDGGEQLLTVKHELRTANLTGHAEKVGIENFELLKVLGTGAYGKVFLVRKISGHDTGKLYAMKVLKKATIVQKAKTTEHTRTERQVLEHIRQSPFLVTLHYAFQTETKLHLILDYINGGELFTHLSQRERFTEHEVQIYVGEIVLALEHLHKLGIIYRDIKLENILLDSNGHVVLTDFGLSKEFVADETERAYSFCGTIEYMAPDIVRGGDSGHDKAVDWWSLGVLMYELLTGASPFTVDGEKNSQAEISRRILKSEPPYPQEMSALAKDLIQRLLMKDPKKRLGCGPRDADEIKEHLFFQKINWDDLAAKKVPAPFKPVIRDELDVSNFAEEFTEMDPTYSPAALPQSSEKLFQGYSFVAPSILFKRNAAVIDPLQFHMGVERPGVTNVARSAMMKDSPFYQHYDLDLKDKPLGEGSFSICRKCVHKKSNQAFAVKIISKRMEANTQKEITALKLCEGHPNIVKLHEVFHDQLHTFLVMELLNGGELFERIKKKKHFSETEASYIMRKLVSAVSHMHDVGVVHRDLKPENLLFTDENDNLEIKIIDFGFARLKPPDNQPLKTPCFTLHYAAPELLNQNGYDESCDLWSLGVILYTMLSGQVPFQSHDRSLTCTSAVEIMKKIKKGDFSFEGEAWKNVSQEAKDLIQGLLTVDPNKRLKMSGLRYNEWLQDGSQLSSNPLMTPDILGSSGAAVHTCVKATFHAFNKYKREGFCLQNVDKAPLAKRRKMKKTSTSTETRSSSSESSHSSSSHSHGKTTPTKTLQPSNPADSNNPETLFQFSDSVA
Sequence of BTK (human) (Q06187 whole entry, looked up): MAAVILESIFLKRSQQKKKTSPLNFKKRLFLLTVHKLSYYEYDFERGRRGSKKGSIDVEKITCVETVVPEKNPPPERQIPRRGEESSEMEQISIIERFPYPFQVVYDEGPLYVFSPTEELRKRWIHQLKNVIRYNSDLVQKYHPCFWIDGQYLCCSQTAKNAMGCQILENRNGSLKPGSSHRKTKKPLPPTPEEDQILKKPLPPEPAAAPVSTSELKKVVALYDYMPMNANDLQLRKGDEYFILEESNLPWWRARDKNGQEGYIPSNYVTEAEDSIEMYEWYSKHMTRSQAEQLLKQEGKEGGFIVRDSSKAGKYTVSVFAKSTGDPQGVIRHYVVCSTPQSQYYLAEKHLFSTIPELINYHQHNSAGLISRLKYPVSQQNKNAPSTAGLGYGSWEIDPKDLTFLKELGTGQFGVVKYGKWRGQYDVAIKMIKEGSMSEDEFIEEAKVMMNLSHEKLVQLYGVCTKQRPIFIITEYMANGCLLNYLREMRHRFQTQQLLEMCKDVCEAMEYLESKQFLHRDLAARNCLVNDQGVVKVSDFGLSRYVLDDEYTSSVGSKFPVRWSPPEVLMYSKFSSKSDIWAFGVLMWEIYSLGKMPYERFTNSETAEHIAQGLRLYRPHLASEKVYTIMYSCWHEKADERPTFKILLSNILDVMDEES
Sequence of IRAK4 (human) (Q9NWZ3 whole entry, looked up): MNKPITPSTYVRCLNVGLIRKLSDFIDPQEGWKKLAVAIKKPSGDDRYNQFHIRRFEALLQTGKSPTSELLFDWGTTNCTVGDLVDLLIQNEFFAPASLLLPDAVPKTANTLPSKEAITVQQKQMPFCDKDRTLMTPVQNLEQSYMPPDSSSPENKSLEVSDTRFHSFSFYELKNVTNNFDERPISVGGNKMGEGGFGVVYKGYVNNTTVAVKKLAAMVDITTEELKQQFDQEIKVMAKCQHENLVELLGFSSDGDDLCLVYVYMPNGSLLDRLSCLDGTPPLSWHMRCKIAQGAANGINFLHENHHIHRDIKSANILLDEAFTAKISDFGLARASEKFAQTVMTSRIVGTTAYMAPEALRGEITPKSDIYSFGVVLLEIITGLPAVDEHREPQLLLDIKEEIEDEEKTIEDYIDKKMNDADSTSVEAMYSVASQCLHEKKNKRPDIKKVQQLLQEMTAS

- inhibition (MAP2K6 (human)): 6%
- inhibition (BTK (human)): 3%
- inhibition (MYLK2 (human)): 8%
- inhibition (IRAK4 (human)): 12%
- inhibition (RPS6KA5 KD1 KD2 (human)): 8%
- inhibition (BMX (human)): 3%
- inhibition (SRPK2 (human)): 7%
- inhibition (INSR (human)): 6%
- inhibition (PRKCB2 (human)): 8%
- inhibition (ALK (human)): 1%
- inhibition (TAOK2 (human)): 6%
Compound: Nc1cc(C(F)(F)F)c(-c2cc(N3CCOCC3)nc(N3CCOCC3)n2)cn1
